The values that follow come from patent publication US5094783A, “Retinoid compounds” (UAB Research Foundation, priority 1990, dated 1992).

Structures are written as SMILES. Bounds are passed on as bounds.

For assay [1], the system named is ornithine decarboxylase (ODC) induced by TPA in mouse epidermis. Briefly: In vivo ODC assay: inhibition of TPA-induced ornithine decarboxylase activity in mouse epidermis. Conditions: TPA-induced ODC activity in epidermis of CD-1 mice, single topical application of retinoid 30 to 60 min before TPA, skins collected 5 h after TPA; values normalized to TPA control of 10; X=CO2H. The protocol: An in vivo ODC assay was conducted using four configurational isomers of retinoid 7 with X=CO2 H to study their bioactivities with respect to prevention of tumors. The ODC assay measured the inhibition by retinoids of the induction of ornithine decarboxylase in mouse epidermis by phorbol ester (TPA), an indicator of retinoid potency as a chemopreventive agent.
A single application of TPA was made to the shaved backs of CD-1 mice 30 to 60 minutes after a single application of the test retinoid. Five hours after the application of TPA, the exposed skins from the back of the three animals in each group were collected, and the epidermal extracts prepared from each animal were pooled and assayed. In order to improve the counting efficiency of radio-labeled product formed in the assay, the specific activity of ^14 C-ornithine was increased five-fold; the assay was terminated by the addition of citric acid at 45 minutes to ensure linear kinetics.

The target in assay [2] is cellular retinoic acid binding protein (CRABP) from chick embryo skin. Briefly: CRABP binding assay, I50 (dextran-coated charcoal). Conditions: 50% inhibition of binding of 100 pmoles [3H] retinoic acid to CRABP, chick embryo skin extract (1 mg protein); X=CO2H. The protocol: A standard in vitro cellular retinoic acid binding protein (CRABP) assay was also conducted on the retinoids. The CRABP binding study measured the ability of retinoids to compete for the retinoic acid binding site on CRABP, also a good indicator of retinoid potency as a chemopreventive agent.
(§1) Aliquots (2 mg protein) of chick skin extracts were incubated with 300 pmoles of [^3 H] retinoic acid in the presence or absence of 100-fold molar excesses of the test compounds. The 2S CRABP peaks were determined from the radioactivity profiles obtained after sedimentation through 5 to 20% sucrose density gradients at 180,000×g for 18 hours (Sani et al., supra). […] Free radioactive retinoid was removed by absorption on dextran-coated charcoal. The I50 values of the test compounds were derived from the semilog plots of their molar concentrations versus the specifically bound [^3 H] retinoic acid to CRABP at the different concentrations of the test retinoids.

For assay [3], the system named is chick embryo skin CRABP. Briefly: CRABP competition by sucrose density gradient sedimentation, 100-fold excess of retinoid. As to conditions: 100-fold molar excess of test compound, 300 pmol [3H] retinoic acid, FIG. 1. The assay is classed as binding. As for the experimental part: as §1
Assay [4] concerns mouse skin papilloma. The assay is described as follows: Mouse papilloma assay (tumor formation after DMBA initiation). Format: in vivo. Conditions: initiation with DMBA, X=CO2H.
Text: This assay measured the inhibition of tumor formation following initiation with dimethylbenz(a)anthracene (DMBA).

By IC50 is commonly meant the concentration needed to halve the response being measured. A low value points to inhibition by little substance. With `CC1=C(C(C)C)/C(=C/C(C)=C/C=C/C(C)=C\C(=O)O)CCC1` [(13Z)-7], the “ODC Assay (nmol CO2/30 min./mg protein)” value in assay [1] is 1.0 nmol CO2/30 min./mg protein. This compound also gave an IC50 in assay [2] of 500 nM. The “inhibition of [3H] retinoic acid-binding to CRABP (relative binding affinity as compared to retinoic acid)” value in assay [3] turned out to be 70%.

Turning to `CC1=C(C(C)C)/C(=C/C(C)=C\C=C\C(C)=C\C(=O)O)CCC1` [(9Z)-7], the “ODC Assay (nmol CO2/30 min./mg protein)” value in assay [1] is > 100 nmol CO2/30 min./mg protein. Moreover, in assay [2], the IC50 came to 2800 nM. Besides, in assay [3], the “inhibition of [3H] retinoic acid-binding to CRABP (relative binding affinity as compared to retinoic acid)” value was determined as 0%.

Turning to `CC1=C(C(C)C)/C(=C/C(C)=C\C=C\C(C)=C/C(=O)O)CCC1` [(9Z,13Z)-7], in assay [1], the “ODC Assay (nmol CO2/30 min./mg protein)” value is recorded as > 100 nmol CO2/30 min./mg protein. Also, the IC50 in assay [2] turned out to be 4900 nM. In addition, the “inhibition of [3H] retinoic acid-binding to CRABP (relative binding affinity as compared to retinoic acid)” value in assay [3] came to 0%.

In the case of `CC1=C(C(C)C)/C(=C/C(C)=C/C=C/C(C)=C/C(=O)O)CCC1` [(all E)-7], the “ODC Assay (nmol CO2/30 min./mg protein)” value in assay [1] was 0.5 nmol CO2/30 min./mg protein. This compound had an IC50 in assay [2] of 400 nM. Moreover, in assay [3], the “inhibition of [3H] retinoic acid-binding to CRABP (relative binding affinity as compared to retinoic acid)” value stood at 100%. Besides, the “tumor production, % of controls” value in assay [4] is listed as 20 % of controls.

As to `CC1=C(/C=C/C(C)=C/C=C/C(C)=C/C(=O)O)C(C)(C)CCC1` [all-E retinoic acid, reference compound], the “ODC Assay (nmol CO2/30 min./mg protein)” value in assay [1] is listed as 0.5 nmol CO2/30 min./mg protein. In assay [2], this compound had a 50% inhibitory concentration (IC50) of 900 nM. Further, in assay [3], the “inhibition of [3H] retinoic acid-binding to CRABP (relative binding affinity as compared to retinoic acid)” value worked out at 100%. In assay [4], the “tumor production, % of controls” value was 11 % of controls.
